Experimental data as given in patent EP4692088A1, “COMPOUND ACTING AS WRN HELICASE INHIBITOR” (SHANGHAI JEYOU PHARMACEUTICAL CO., LTD., priority 2023, dated 2024).

Legend:
LoVo = assay: Cell proliferation assay (CellTiter-Glo), LoVo; assay type: cell-based; conditions: Homo sapiens, 120 h, 5 days incubation
Method: (§1) SW48 cells were plated at a density of 1,500 cells/well, and LoVo, HCT116, and SW620 cells were plated at a density of 800 cells/well in a 96-well cell culture plate, and cultured in a 37°C incubator overnight. The test compounds, which were gradient-diluted with DMSO, were added, and after incubation for 5 days, cell viability was detected using a CellTiter-Glo kit. The CellTiter-Glo reagent was equilibrated to room temperature, and an appropriate amount was added to the cell plate, followed by shaking at room temperature for 12 min. The luminescence signal was detected using a microplate reader.
(§2) The luminescence signal values of the DMSO-treated wells and cell-free wells were used as negative and positive controls, respectively, to calculate the inhibition rate of compound on cell proliferation. The concentration-inhibition curve was fitted using the "log(inhibitor) vs. normalized response -- Variable slope" equation in GraphPad Prism 8 software to obtain the IC50. [formula]

HCT116 cells = assay: Cell proliferation assay (CellTiter-Glo), HCT116; assay type: cell-based; conditions: Homo sapiens, 120 h, HCT-116, 5 days incubation
Method: as §1, §2

Compound: CCc1c(N2CCN(C(=O)c3ncnc(C)c3O)CC2)c(=O)c2nn(C3=CCOCC3)nc2n1CC(=O)Nc1ccc(C(F)(F)F)cc1Cl [Example 4]
- IC50 (LoVo): 105 nM
- IC50 (HCT116 cells): 48 nM
